Test results taken from patent publication US20200306295A1, “METHOD AND DEVICE FOR ANNIHILATION OF Staphylococcus aureus” (priority 2017, published 2020).

Tested on: 200 kinds of cytokines
Experiment: Fold change of 200 cytokines in homogenized wound tissue
Format: in vivo, Balb/c mice
Description: To quantify the physiological condition of the wound tissues, we measured the concentrations of 200 kinds of cytokines (Table. 1) from the supernatant of homogenized tissue solution. Cytokines are small secreted proteins released by cells and have specific effect on the interactions and communications between cells (25).
To initiate the formation of a skin wound, five groups (n=5) of eight-week old female Balb/c mice (obtained from Harlan Laboratories, Indianapolis, Ind., USA) were disinfected with ethanol (70%) and shaved on the middle of the back (approximately a one-inch by one-inch square region around the injection site) one day prior to infection as described from a reported procedure (3). To prepare the bacterial inoculum, an aliquot of overnight culture of MRSA USA300 was transferred to fresh Tryptic soy broth and shaken at 37° C. until an OD600 value of ˜1.0 was achieved. The cells were centrifuged, washed once with PBS, re-centrifuged, and then re-suspended in PBS. Mice subsequently received an intradermal injection (40 μL) containing 2.40×10^9 CFU/mL MRSA USA300.
One group of mice was left untreated (negative control). Each group of mice receiving a particular treatment regimen was housed separately in a ventilated cage with appropriate bedding, food, and water. […] Mice were treated twice daily (once every 12 hours) for three days, before they were humanely euthanized via CO2 asphyxiation 12 hours after the last dose was administered. The region around the skin wound was lightly swabbed with ethanol (70%) and excised. The tissue was subsequently homogenized in PBS. The homogenized tissue was then serially diluted in PBS before plating onto mannitol salt agar plates. Plates were incubated for at least 19 hours at 37° C. before viable MRSA CFU/mL were counted for each group. Outlier was removed based upon the Dixon Q Test.

OO [H2O2, hydrogen peroxide]
share of 200 cytokines with negative fold change vs untreated (blue light and H2O2-treated group): Over 85%
fold change of MBL-2 (mean) (cytokine MBL-2, group mean, wound tissue of MRSA-infected mice): −0.0587
fold change of Meteorin (mean) (cytokine Meteorin, group mean, wound tissue of MRSA-infected mice): 0.4850
fold change of NOV (mean) (cytokine NOV, group mean, wound tissue of MRSA-infected mice): −0.1756
fold change of Nope (mean) (cytokine Nope, group mean, wound tissue of MRSA-infected mice): −0.2914
fold change of OX40 Ligand (mean) (cytokine OX40 Ligand, group mean, wound tissue of MRSA-infected mice): 0.2366
fold change of Osteoactivin (mean) (cytokine Osteoactivin, group mean, wound tissue of MRSA-infected mice): 0.4709
fold change of P-Cadherin (mean) (cytokine P-Cadherin, group mean, wound tissue of MRSA-infected mice): −0.0660
fold change of Periostin (mean) (cytokine Periostin, group mean, wound tissue of MRSA-infected mice): −0.5519
fold change of PlGF-2 (mean) (cytokine PlGF-2, group mean, wound tissue of MRSA-infected mice): −0.0738
fold change of Progranulin (mean) (cytokine Progranulin, group mean, wound tissue of MRSA-infected mice): −0.6229
fold change of Prostasin (mean) (cytokine Prostasin, group mean, wound tissue of MRSA-infected mice): 1.1226
fold change of Renin 1 (mean) (cytokine Renin 1, group mean, wound tissue of MRSA-infected mice): −0.3457
fold change of TIM-1 (mean) (cytokine TIM-1, group mean, wound tissue of MRSA-infected mice): −0.1106
fold change of Testican 3 (mean) (cytokine Testican 3, group mean, wound tissue of MRSA-infected mice): −0.1883
fold change of Tryptase ε (mean) (cytokine Tryptase ε, group mean, wound tissue of MRSA-infected mice): 0.3620
fold change of 4-1BB (mean, wound tissue): −0.2733
fold change of 6Ckine (mean, wound tissue): −0.3474
fold change of ACE (mean, wound tissue): −0.8627
fold change of ADAMTS1 (mean, wound tissue): 0.1068
fold change of ALK-1 (mean, wound tissue): −0.1821
fold change of ANG-3 (mean, wound tissue): −0.1019
fold change of ANGPTL3 (mean, wound tissue): −0.1222
fold change of AR (mean, wound tissue): −0.1343
fold change of Activin A (mean, wound tissue): 0.0097
fold change of Adiponen (mean, wound tissue): −0.0278
fold change of Artemin (mean, wound tissue): 0.0433
fold change of Axl (mean, wound tissue): −0.1455
fold change of B7-1 (mean, wound tissue): 0.2808
fold change of BAFF R (mean, wound tissue): 0.0988
fold change of BLC (mean, wound tissue): −0.1960
fold change of BTC (mean, wound tissue): 0.9018
fold change of C5a (mean, wound tissue): 0.1618
fold change of CCL6 (mean, wound tissue): −0.3559
fold change of CCL28 (mean, wound tissue): −0.6841
fold change of CD6 (mean, wound tissue): −0.2795
fold change of CD27 (mean, wound tissue): 0.1670
fold change of CD27L (mean, wound tissue): 0.1373
fold change of CD30 (mean, wound tissue): −0.0510
fold change of CD30L (mean, wound tissue): −0.0733
fold change of CD36 (mean, wound tissue): −0.4456
fold change of CD40 (mean, wound tissue): −0.1007
fold change of CD40L (mean, wound tissue): −0.2549
fold change of CD48 (mean, wound tissue): −0.3656
fold change of CRP (mean, wound tissue): −0.2262
fold change of CT-1 (mean, wound tissue): −0.3499
fold change of CTLA4 (mean, wound tissue): −0.1747
fold change of CXCL16 (mean, wound tissue): −0.2162
fold change of Chemerin (mean, wound tissue): −0.2510
fold change of Chordin (mean, wound tissue): −0.0093
fold change of Clusterin (mean, wound tissue): 0.1123
fold change of Cystatin C (mean, wound tissue): 0.0313
fold change of DLL4 (mean, wound tissue): −0.0364
fold change of Decorin (mean, wound tissue): −0.0051
fold change of Dkk-1 (mean, wound tissue): −0.4175
fold change of Dtk (mean, wound tissue): −0.3288
fold change of E-Cadherin (mean, wound tissue): −0.1379
fold change of E-selectin (mean, wound tissue): −0.1083
fold change of EDAR (mean, wound tissue): 0.0841
fold change of EGF (mean, wound tissue): −0.2293
fold change of Endocan (mean, wound tissue): −0.0335
fold change of Endoglin (mean, wound tissue): −0.6886
fold change of Eotaxin (mean, wound tissue): 0.8584
fold change of Eotaxin-2 (mean, wound tissue): −0.5961
fold change of Epigen (mean, wound tissue): −0.1588
fold change of Epiregulin (mean, wound tissue): −0.2878
fold change of Fas (mean, wound tissue): −0.3001
fold change of Fas L (mean, wound tissue): −0.2203
fold change of Fcg RIIB (mean, wound tissue): 0.2388
fold change of Fetuin A (mean, wound tissue): −0.5133
fold change of Flt-3L (mean, wound tissue): −0.2615
fold change of Fractalkine (mean, wound tissue): 0.4416
fold change of G-CSF (mean, wound tissue): −0.4083
fold change of GITR (mean, wound tissue): −0.1455
fold change of GITR L (mean, wound tissue): −0.0425
fold change of GM-CSF (mean, wound tissue): −0.1960
fold change of Galectin-1 (mean, wound tissue): −0.1195
fold change of Galectin-3 (mean, wound tissue): 0.0550
fold change of Galectin-7 (mean, wound tissue): −0.3150
fold change of Gas 1 (mean, wound tissue): −0.7018
fold change of Gas 6 (mean, wound tissue): −0.3085
fold change of Granzyme B (mean, wound tissue): 0.2145
fold change of Gremlin (mean, wound tissue): −0.8057
fold change of H60 (mean, wound tissue): −0.0250
fold change of HAI-1 (mean, wound tissue): −0.0794
fold change of HGF (mean, wound tissue): 0.2749
fold change of HGF R (mean, wound tissue): 0.0240
fold change of I-TAC (mean, wound tissue): −0.1457
fold change of ICAM-1 (mean, wound tissue): −0.0362
fold change of IFNg (mean, wound tissue): −0.2366
fold change of IFNg R1 (mean, wound tissue): −0.2832
fold change of IGF-1 (mean, wound tissue): 0.2487
fold change of IGFBP-2 (mean, wound tissue): 0.0153
fold change of IGFBP-3 (mean, wound tissue): −0.2116
fold change of IGFBP-5 (mean, wound tissue): 0.0442
fold change of IGFBP-6 (mean, wound tissue): −0.2308
fold change of IL-1 R4 (mean, wound tissue): 0.0090
fold change of IL-1a (mean, wound tissue): 0.0141
fold change of IL-1b (mean, wound tissue): 0.2075
